Data from PMC9645260, “Small-molecule inhibitors of P-Rex guanine-nucleotide exchange factors” (Small GTPases, 2022).

What was measured:
P-Rex1 DH domain = target: T1, P-Rex1 DH domain (Homo sapiens, UniProt Q8TCU6); assay: Liposome-based GEF activity assay, isolated P-Rex1 DH domain; type: biochemical; conditions: 10 µM, 200 nM DH domain, without PIP3; read-out: inhibition of constitutive Rac-GEF activity of isolated P-Rex1 DH domain
T1 construct: 200 nM iDH EE-P-Rex1 DH domain (compounds 11–29); made in house; host or cells: Sf9 cells (baculovirus)
Method: Full-length N-terminally EE-tagged P-Rex1, P-Rex2, the P-Rex1 DH and DHPH domains and the P-Rex2 DH domain were produced in Sf9 cells using baculoviral transduction and were purified using anti-EE beads, as previously described. Briefly, frozen pellets from 500 ml of Sf9 culture infected with P-Rex expressing high-titre baculovirus were resuspended in ice-cold lysis Sf9-cell lysis buffer 2 (1x PBS, 1% Triton X-100, 5 mM EGTA, 1 mM EDTA, 25 mM NaF, 20 mM β-glycerophosphate, 1 mM DTT, 100 µM PMSF, 10 μg/ml each of leupeptin, pepstatin A, aprotinin and antipain) for 5 min and then ultracentrifuged at 118,000 × g for 1 h at 4°C. Supernatants were incubated with pre-washed anti-EE beads for 90 min on ice with end-over-end rotation. Beads were washed 4 times in wash buffer (2x PBS, 0.1% Triton X-100, 1 mM EGTA) and 5 times in elution buffer (1x PBS, 10% glycerol, 1 mM DTT, 1 mM EGTA, 0.01% Na azide), and protein was eluted by incubation with elution buffer containing Ac-EEYMPME peptide as described above. Protein was concentrated in a YM-100 Centricon (Millipore) at 5000 × g at 4°C. Fatty acid-free BSA and glycerol were added to final concentrations of 2 mg/ml and 50%, respectively. Protein concentration and purity were determined by coomassie staining of SDS-PAGE gels. Full-length Tiam1, expressed in and purified from Sf9 cells, was a kind gift from Angeliki Malliri, CRUK Manchester Institute, UK. […]
(§1) Liposome-based GEF activity assays were carried out essentially as described, except that GEFs were incubated with inhibitor compounds prior to the assay. […] Small GTPases were isolated using anti-EE antibody-coupled Sepharose beads or glutathione Sepharose beads, as appropriate, by incubation on ice for 90 min with end-over-end rotation, four washes in ice-cold wash buffer and resuspension of beads in Ultima Gold scintillation fluid (Perkin Elmer). ^35S-GTPγS incorporation was assessed by scintillation counting (Packard 1600TR, Liquid Scintillation Analyser).

Tiam1 (full-length) = target: T2, Tiam1 (full-length) (Homo sapiens, UniProt Q13009); assay: Liposome-based GEF activity assay, Tiam1; type: biochemical; conditions: 10 µM, 50 nM full-length Tiam1
T2 construct: Full-length Tiam1, expressed in and purified from Sf9 cells; host or cells: Sf9 cells
Method: Full-length N-terminally EE-tagged P-Rex1, P-Rex2, the P-Rex1 DH and DHPH domains and the P-Rex2 DH domain were produced in Sf9 cells using baculoviral transduction and were purified using anti-EE beads, as previously described. Briefly, frozen pellets from 500 ml of Sf9 culture infected with P-Rex expressing high-titre baculovirus were resuspended in ice-cold lysis Sf9-cell lysis buffer 2 (1x PBS, 1% Triton X-100, 5 mM EGTA, 1 mM EDTA, 25 mM NaF, 20 mM β-glycerophosphate, 1 mM DTT, 100 µM PMSF, 10 μg/ml each of leupeptin, pepstatin A, aprotinin and antipain) for 5 min and then ultracentrifuged at 118,000 × g for 1 h at 4°C. Supernatants were incubated with pre-washed anti-EE beads for 90 min on ice with end-over-end rotation. […] Protein concentration and purity were determined by coomassie staining of SDS-PAGE gels. […]
as §1

HEK-293 cells = assay: Cell cycle stages by propidium iodide flow cytometry; type: cell-based
Method: Human embryonic kidney 293 (HEK-293) cells were grown at 37°C in a humidified 5% CO2 atmosphere in Dulbecco’s modified Eagle medium (DMEM, Gibco) supplemented with 10% foetal bovine serum (FBS), 100 units/ml penicillin and 100 µg/ml streptomycin. Cells were passaged by tryptic digest 1:4 approximately every 2 days. To measure cell cycle stages, 2 ml HEK293 cells were plated per well of a 6-well dish (Thermo Scientific, Nunc) at 10^5 cells/ml. After 24 h, the medium was replaced with fresh medium containing various concentrations of PREX-in1, as indicated, or 10 μM NSC23766, or vehicle control (0.1% DMSO), and cells were incubated for a further 24 h. The medium was removed but kept aside to recover any detached cells. Wells were washed with PBS, and cells recovered by trypsinization. Cell suspensions were pooled with the culture supernatant and centrifuged at 433 × g for 5 min at RT. Cells were washed in PBS, resuspended in ice-cold 70% ethanol/PBS, and incubated for 30 min at 4°C for fixation and permeabilization. Cells were washed once more in PBS, then stained with 50 µg/ml propidium iodide in PBS containing 100 µg/ml RNase for 30 min at 37°C. Cells were analysed by flow cytometry for the intensity of propidium iodide staining using a FACSCalibur flow cytometer. 10,000 cells were analysed per sample. Data analysis was done using FloJo software.

T1 sequence (Q8TCU6 49-240 limits assumed): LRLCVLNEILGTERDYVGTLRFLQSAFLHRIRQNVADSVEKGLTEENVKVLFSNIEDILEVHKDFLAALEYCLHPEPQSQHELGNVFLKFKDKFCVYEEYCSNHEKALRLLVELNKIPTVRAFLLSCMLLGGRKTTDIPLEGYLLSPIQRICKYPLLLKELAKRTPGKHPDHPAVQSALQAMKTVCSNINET
T2 sequence (Q13009 whole entry): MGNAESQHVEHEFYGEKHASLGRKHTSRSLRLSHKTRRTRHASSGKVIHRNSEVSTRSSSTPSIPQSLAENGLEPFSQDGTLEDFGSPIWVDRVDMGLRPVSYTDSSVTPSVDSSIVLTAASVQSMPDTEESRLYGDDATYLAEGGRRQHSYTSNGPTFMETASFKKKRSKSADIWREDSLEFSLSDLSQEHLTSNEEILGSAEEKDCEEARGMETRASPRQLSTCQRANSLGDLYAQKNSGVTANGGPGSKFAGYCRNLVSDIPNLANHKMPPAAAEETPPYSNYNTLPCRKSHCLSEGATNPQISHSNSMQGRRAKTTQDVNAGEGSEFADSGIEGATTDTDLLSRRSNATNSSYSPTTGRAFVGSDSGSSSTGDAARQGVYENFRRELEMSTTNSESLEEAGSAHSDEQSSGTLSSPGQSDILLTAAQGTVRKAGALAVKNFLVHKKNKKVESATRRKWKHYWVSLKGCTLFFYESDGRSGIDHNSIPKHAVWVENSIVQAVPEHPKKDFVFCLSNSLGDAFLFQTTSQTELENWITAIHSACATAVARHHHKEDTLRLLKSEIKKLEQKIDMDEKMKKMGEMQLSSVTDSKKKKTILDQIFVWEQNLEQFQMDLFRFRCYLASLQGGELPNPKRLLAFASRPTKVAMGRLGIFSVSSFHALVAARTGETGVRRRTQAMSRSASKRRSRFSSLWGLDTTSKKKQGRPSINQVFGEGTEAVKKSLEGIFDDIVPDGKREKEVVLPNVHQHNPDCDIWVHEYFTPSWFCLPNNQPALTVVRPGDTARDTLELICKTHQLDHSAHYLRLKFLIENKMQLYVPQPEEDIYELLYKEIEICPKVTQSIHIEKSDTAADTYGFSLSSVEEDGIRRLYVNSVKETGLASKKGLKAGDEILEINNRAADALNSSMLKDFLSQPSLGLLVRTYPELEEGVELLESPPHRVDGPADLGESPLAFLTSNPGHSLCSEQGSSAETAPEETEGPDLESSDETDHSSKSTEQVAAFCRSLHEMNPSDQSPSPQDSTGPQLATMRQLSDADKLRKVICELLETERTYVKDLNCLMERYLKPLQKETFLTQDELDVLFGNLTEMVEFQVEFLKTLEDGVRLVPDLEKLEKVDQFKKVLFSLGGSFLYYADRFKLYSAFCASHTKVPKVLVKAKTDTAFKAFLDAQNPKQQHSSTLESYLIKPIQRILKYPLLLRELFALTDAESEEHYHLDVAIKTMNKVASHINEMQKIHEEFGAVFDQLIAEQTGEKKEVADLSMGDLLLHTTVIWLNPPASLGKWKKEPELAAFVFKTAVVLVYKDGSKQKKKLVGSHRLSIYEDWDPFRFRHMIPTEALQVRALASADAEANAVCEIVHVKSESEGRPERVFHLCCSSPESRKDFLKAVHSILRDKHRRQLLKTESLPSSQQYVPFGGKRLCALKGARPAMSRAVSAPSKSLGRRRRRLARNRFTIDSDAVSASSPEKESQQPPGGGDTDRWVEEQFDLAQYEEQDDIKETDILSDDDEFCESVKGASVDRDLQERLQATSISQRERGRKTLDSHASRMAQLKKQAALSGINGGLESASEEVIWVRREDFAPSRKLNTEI

## COc1ccc(-c2[nH]nc3c2C(c2ccc(-c4ccc(Cl)cc4)o2)C(C#N)=C(N)O3)cc1 (stereo not shown) [PREX-in1, 6-amino-4-[5-(4-chlorophenyl)-2-furyl]-3-(4-methoxyphenyl)-2,4-dihydropyrano[2,3-c]pyrazole-5-carbonitrile]
P-Rex1 DH domain
  inhibition at 10 µM: 98%
Tiam1 (full-length)
  effect on GEF activity of Tiam1: none of the other GEFs were affected
HEK-293 cells; 1 µM
  cytotoxic effects: did not observe cytotoxic effects
HEK-293 cells; 24 h treatment, 10 µM
  cell death (sub-G1 phase): promotes cell death
